Data: article PMC4372538, “Advantages of the Phosphatidylserine-Recognizing Peptide PSP1 for Molecular Imaging of Tumor Apoptosis Compared with Annexin V” (PLoS ONE, 2015)
Entries after “also recorded” stand apart in the source; their conditions may differ. Where two headings read alike, the source gives them in different places.

Columns and labels:
PS liposomes = assay: SPR binding to PS liposomes
From the text: To compare the kinetics of annexin V and PSP1 peptide binding to PS liposomes, SPR spectroscopy was employed (Reichert Inc, NY, USA). PC and PS liposomes (0.8:0.2 PC:PS) were generated as previously described and were homogenously purified using a liposome mini-extruder with a 100 nm membrane filter, based on the manufacturer’s protocol (Avanti Polar Lipids). […] Briefly, phytosphingosine was immobilized by activating the carboxymethyl groups on dextran-coated chips (Reichert Life Sciences) through a reaction with N-hydroxysuccinimide (Sigma-Aldrich), followed by covalent bonding of the ligands to the chip surface via amide linkages and blocking of excess activated carboxyls with ethanolamine. The purified PS or PC liposomes were captured on the phytosphingosine layer at a flow rate of 5 μl/min in liposome immobilization buffer (10 mM Tris-HCl (pH 8.0), 100 mM NaCl, and 2 mM CaCl2). To use the PC-immobilized surface as a control, the injected PS or PC liposome volume was adjusted to an immobilization level of approximately 4000±200 RU. Different concentrations of the PSP1 peptide (0.313 to 5 μM) and annexin V (3.13 to 100 nM) in running buffer (10 mM Tris-HCl (pH 8.0), 100 mM NaCl, 2 mM CaCl2, and 62.5 μg/ml BSA) were allowed to flow over the surfaces bound to the immobilized liposomes for 3 min at a rate of 30 μl/min. The sensor surface was regenerated after each association and dissociation cycle by injecting 10 mM EDTA for 20 s, followed by 50 mM NaOH for 10 s. The interaction of the ligand and the analyte was analyzed using Scrubber 2 Biologic software (http://www.biologic.com.au/). The binding kinetics was assessed by determining the association (kon), dissociation (koff), and equilibrium (KD) constants.
The in vitro binding affinity of PSP1 and annexin V for PS was further examined using SPR analysis (Fig. 2). […] We immobilized PS liposomes on the surface of an SPR chip, applied a series of different concentrations of PSP1 or annexin V, and examined the binding kinetics. PS-specific binding was determined by subtracting binding responses to a PC liposome-coated surface from those obtained using a PS liposome-coated […] surface.
Fig 2 In vitro SPR analysis of PSP1 and annexin V binding to PS liposomes. (A) The indicated concentrations of PSP1 were injected onto the liposome-immobilized surface. Responses (RU) from the PC liposome-coated surface (reference) were subtracted from those from the PS:PC (2:8) liposome surface to monitor PS-specific binding. The equilibration binding constant (KD) and the association (Kon) and dissociation (Koff) rate constants were estimated using the Scrubber program. (B) Plots of the RU values of annexin V at the indicated concentrations.

apoptotic H460 cells [1] = assay: FACS binding to apoptotic H460 cells; assay type: cell-based, human; details: FITC-labeled, etoposide 50 μM 22 hrs, 2, 10, 20, 50 μg/ml, binding buffer 10 mM Hepes pH 7.4, 150 mM NaCl ± 2 mM CaCl2, 4°C, 1 hr
Method: The human lung cancer cell H460, which was obtained from the American Type Culture Collection (ATCC), was maintained in RPMI-1640 media supplemented with 10% heat-inactivated fetal bovine serum (FBS) and penicillin G/streptomycin at 37°C in a humidified atmosphere of 95% air and 5% CO2.
To induce apoptosis of lung tumor cells (H460), the cells (5×10^6 cell) were grown overnight and then treated with etoposide (50 μM) (Sigma) in serum-free media for 22 hrs, followed by washing with phosphate-buffered saline (PBS) and binding buffer (10 mM Hepes (pH 7.4), 150 mM NaCl, and 2 mM CaCl2).
Control peptide (grey); FITC-NSSSVDK.

apoptotic H460 cells [2] = assay: confocal microscopy of binding to apoptotic H460 cells; assay type: cell-based, human
[3] = system: apoptotic tumor cells in H460 tumor-bearing mice; assay: in vivo fluorescence imaging of tumors after apoptosis induction; design: species or system BALB/c nude mice; human H460 tumor; details: Cy7.5-labeled
Method: Female nude mice (BALB/c nude; body weight, 20±3 g; n = 5) were housed in a specific pathogen-free environment at 22±2°C and 55±5% relative humidity with light. Tumors were generated by subcutaneously injecting H460 cells (5×10^6 cells) into the right shoulder of 6-wk-old female BALB/c nude mice and allowing them to grow for 3 weeks (size of 0.5 to 0.7 cm). For in vivo analysis of tumor targeting, the tumor-bearing mice were either treated or not treated with a single dose of camptothecin (10 mg/kg) 24 hrs prior to intravenous injection of Cy7.5-labeled PSP1, Cy7.5-annexin V or Cy7.5-labeled control peptide into the tail vein under inhalational anesthesia (1% (w/v) isoflurane in 2 L oxygen).
In vivo fluorescence images were taken at different time intervals after peptide injection (10 min, 1 h, 3 h, 6 h, and 12 h) using an eXplore Optix system (ART Advanced Research Technologies Inc., Montreal, Canada), which has excitation/emission wavelengths of 778 nm/805 nm. The obtained images were processed using eXplore Optix OptiView Software and normalized based on the baseline fluorescence, assessed for each mouse prior to peptide injection.
Fig 4 In vivo imaging of tumors after apoptosis induction. (A) Cy7.5-labelled PSP1peptide, control peptide, or annexin V was systematically injected into the tail vein of tumor-bearing nude mice treated with camptothecin 24 hrs before injection. The same amount of annexin V was also injected into non-camptothecin-treated tumor-bearing mice as a control. The homing of the peptides was examined after the indicated times using an optical imaging system. The white dotted circles indicate the tumors. (B) Histological examination of tumor tissues after homing of PSP1 and annexin V, performed under a fluorescence microscope. Tumor cell apoptosis was observed by TUNEL staining.

[4] = calcium-dependent; ref [9],[10]; cited from earlier work
From the text: (§1) The exposure of phosphatidylserine (PS) on the outer surface of the plasma membrane bilayer, an early biochemical event in apoptosis, is an attractive target for molecular imaging of dying cells. During chemo- and radiotherapy, subsequent necrosis also results in PS exposure due to disruption of the plasma membrane’s integrity. […] The stability and biodistribution of annexin V derivatives depend ...

[5] = system: necrotic and nonapoptotic cells with exposed anionic lipids; details: under specific physiological or pathological conditions, ref [12], cited from earlier work
From the text: as §1

[6] = PS:PC (2:8) liposomes, PC response subtracted, Tris-HCl pH 8.0, 2 mM CaCl2, Scrubber, value from picture

- Kd (PS liposomes; PS liposomes, PC liposome response subtracted, Tris-HCl pH 8.0, 2 mM CaCl2, read-out: in vitro binding affinity (equilibrium binding constant)): 3.1 nM
- equilibration binding constant (KD) (PS liposomes; PS:PC (2:8) liposomes on phytosphingosine/CMDH chip, PC liposome response subtracted, 10 mM Tris-HCl pH 8.0, 100 mM NaCl, 2 mM CaCl2, 62.5 μg/ml BSA, PSP1 0.313 to 5 μM, annexin V 3.13 to 100 nM, 3 min, 30 μl/min, Scrubber 2, values from picture): 3.15 nM
- association rate constant (Kon) (PS liposomes; [6]): 1.05±0.76×10^6 M^-1S^-1
- dissociation rate constant (Koff) (PS liposomes; [6]): 1.75±1.28×10^-3 S^-1
Substance: annexin V: endogenous 36-kDa human protein that binds to PS with nanomolar affinity; His-tagged, expressed in Escherichia coli BL-21
- binding to apoptotic H460 cells (FACS) (apoptotic H460 cells [1]): specifically bound to apoptotic H460 cells in a concentration-dependent manner
- binding to apoptotic H460 cells (FACS) (apoptotic H460 cells [1]; listed as Annexin V): appeared to exhibit a greater ability to bind to apoptotic cells
- apoptotic cell-specific signal (confocal microscopy) (apoptotic H460 cells [2]; FITC-labeled, 20 μg/ml, apoptotic H460 (etoposide 50 μM), 4°C, 1 hr): significantly weaker at the same concentration
- predicted sensitivity of annexin V over PSP1 (apoptotic H460 cells [2]; same concentration, predicted from KD ratio, molar concentration 1/16th and 0.7 FITC groups/molecule, not observed): 150 fold
- duration of in vivo fluorescence signal in tumor region ([3]; i.v. tail vein, camptothecin 10 mg/kg 24 hrs before, PSP1 10 μg/200 μl (23.16 μM), annexin V 100 μg/200 μl (14.3 μM)): more than 12 hrs
- in vivo tumor homing, non-camptothecin-treated ([3]; i.v., 100 μg/200 μl, non-camptothecin-treated tumor-bearing mice): did not home to the tumor region
- in vivo tumor homing ([3]; i.v., camptothecin-treated H460 tumor-bearing mice, n = 5, imaging 10 min to 12 h, PSP1 10 μg/200 μl, annexin V and control peptide 100 μg/200 μl): weak signals; also recorded: rapidly observed in the tumor region
- PS binding affinity of annexin V [4]: binds to PS with nanomolar affinity in a calcium-dependent manner
- specificity of annexin V for apoptotic cells [5]: not entirely specific for apoptotic cells
- specificity of annexin V for apoptotic cells ([5]; listed as Annexin V): targets necrotic as well as nonapoptotic cells with exposed anionic lipids
